Results: article PMC6917776, “Discovery of a chemical probe for PRDM9” (Nature Communications, 2019)
Where two headings read alike, the source gives them in different places.

Assays:
[1] = molecular target: T1, ASH1L (Homo sapiens, UniProt Q9NR48); assay: Methyltransferase selectivity assay (filter-based, nucleosome substrate); format: biochemical
T1 construct: purchased Structural Genomics Consortium (SGC Toronto) in-house methyltransferase panel
Procedure: (§1) Selectivity against methyltransferases were determined as described previously. Details of the assays are described in the supplementary methods.
(§2) Methyltransferase selectivity assay1
(§3) The effect of chemical probes and negative controls on the methyltransferase activities of protein, DNA and RNA methyltransferases was tested by radiometric assays using 3H-SAM. […]
(§4) The CPM in the absence of compound or enzyme was defined as 100% activity and background (0%), respectively, for each dataset. […]
(§5) For proteins which were tested with nucleosome as substrate such as DOT1L, NSD1, NSD2, NSD3, and ASH1L, or unbiotinylated Poly(2′-deoxyinosinic-2′-deoxycytidylic acid) (Cat# 81349-500UG, Sigma Aldrich) such as DNMT3A/3L, and DNMT3B/3L, a filter-based assay was used. In this assay, a trichloroacetic acid (TCA) protein precipitation protocol was employed. A 10 µL reaction mixture was incubated at 23°C for 1 h, followed by addition of 50 µL of 10% TCA. The mixture was transferred to filter plates (Millipore, Billerica, MA, USA) that were centrifuged at 2000 rpm (Allegra X-15R; Beckman Coulter, Brea, CA, USA) for 2 min. Samples were washed twice with 10% TCA and once with ethanol (180 µL), and centrifuged. After drying, 100 µL MicroScint-O (Perkin Elmer) was added to each well and the plates were centrifuged to remove the liquid. A 70 µL volume of MicroScint-O was added and the CPM was measured with a TopCount plate reader.

[2] = molecular target: T2, NSD2 (Homo sapiens, UniProt O96028); assay: as above; format: biochemical
T2 construct: purchased Structural Genomics Consortium (SGC Toronto) in-house methyltransferase panel
T2 sequence (O96028 1-1365): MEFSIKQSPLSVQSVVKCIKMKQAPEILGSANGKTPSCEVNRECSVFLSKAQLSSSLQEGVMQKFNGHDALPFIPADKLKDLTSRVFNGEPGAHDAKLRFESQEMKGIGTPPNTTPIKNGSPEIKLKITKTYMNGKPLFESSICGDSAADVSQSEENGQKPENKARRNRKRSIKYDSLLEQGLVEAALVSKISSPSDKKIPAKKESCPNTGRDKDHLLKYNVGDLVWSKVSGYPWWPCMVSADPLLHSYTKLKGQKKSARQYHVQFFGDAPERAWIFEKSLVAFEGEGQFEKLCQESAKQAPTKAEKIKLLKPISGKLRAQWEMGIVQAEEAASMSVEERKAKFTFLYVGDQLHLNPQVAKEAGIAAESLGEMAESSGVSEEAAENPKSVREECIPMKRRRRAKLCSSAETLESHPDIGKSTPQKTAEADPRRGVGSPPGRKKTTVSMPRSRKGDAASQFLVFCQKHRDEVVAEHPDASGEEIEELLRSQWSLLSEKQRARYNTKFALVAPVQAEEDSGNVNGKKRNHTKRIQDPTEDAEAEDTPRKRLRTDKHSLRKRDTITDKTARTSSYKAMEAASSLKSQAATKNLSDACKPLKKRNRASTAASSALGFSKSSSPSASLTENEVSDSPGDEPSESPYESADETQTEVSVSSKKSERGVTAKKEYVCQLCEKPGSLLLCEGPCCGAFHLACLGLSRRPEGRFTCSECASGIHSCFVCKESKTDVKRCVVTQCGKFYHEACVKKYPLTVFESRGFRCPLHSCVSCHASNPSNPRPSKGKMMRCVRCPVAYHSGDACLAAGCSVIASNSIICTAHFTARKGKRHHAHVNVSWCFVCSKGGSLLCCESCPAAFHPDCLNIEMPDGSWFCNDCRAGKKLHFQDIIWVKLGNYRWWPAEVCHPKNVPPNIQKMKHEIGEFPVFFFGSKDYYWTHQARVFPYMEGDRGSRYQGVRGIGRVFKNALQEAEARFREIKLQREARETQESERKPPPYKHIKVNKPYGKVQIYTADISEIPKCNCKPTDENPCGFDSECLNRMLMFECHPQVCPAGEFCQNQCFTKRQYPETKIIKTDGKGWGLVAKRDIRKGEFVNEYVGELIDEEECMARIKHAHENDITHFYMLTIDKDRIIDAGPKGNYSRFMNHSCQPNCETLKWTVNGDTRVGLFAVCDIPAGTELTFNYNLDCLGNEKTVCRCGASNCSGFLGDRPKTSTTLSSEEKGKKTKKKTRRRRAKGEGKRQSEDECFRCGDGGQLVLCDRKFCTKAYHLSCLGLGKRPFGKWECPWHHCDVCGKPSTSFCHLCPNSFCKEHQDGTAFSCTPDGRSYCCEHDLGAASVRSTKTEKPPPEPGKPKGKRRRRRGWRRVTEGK
Procedure: as §1, §2, §3, §4, §5

[3] = 10µM compound, Exp1, Exp2, 10 µM
[4] = 1µM compound, Exp1, Exp2, read-out: Activity %
[5] = 10µM compound, Exp1, Exp2, read-out: Activity %

Row | Compound | activity at 1 µM ([1]; 1µM compound, Exp1, Exp2) [%] | activity at 10 µM ([1]; 10µM compound, Exp1, Exp2) [%] | Activity % [1, 3] [%] | activity at 1 µM ([2]; 1µM compound, Exp1, Exp2) [%] | Activity % ([2]; 1µM compound, Exp1, Exp2, 1 µM) [%] | activity at 10 µM ([2]; 10µM compound, Exp1, Exp2) [%] | Activity % [2, 3] [%] | Activity % ([1]; 1µM compound, Exp1, Exp2, 1 µM) [%] | activity at 1 µM [1, 4] [%] | activity at 10 µM [1, 5] [%] | activity at 1 µM [2, 4] [%] | activity at 10 µM [2, 5] [%]
1 | COc1cc(OC)cc(-c2noc(N3CCN(C)C4(CCN(c5ccccc5)CC4)C3)n2)c1 [MRK-740 -NC] | 100 | 99 | 98 | 98 | 100 | 98 | 88 | – | – | – | – | –
2 | COc1cc(OC)cc(-c2noc(N3CCN(C)C4(CCN(c5ccnc(C)c5)CC4)C3)n2)c1 [MRK-740] | – | – | – | – | 97 | – | 95 | 102 | 113 | 93 | 91 | 98
